Results as given in paper PMC8007111, “Novel Potent Muscarinic Receptor Antagonists: Investigation on the Nature of Lipophilic Substituents in the 5- and/or 6-Positions of the 1,4-Dioxane Nucleus” (Journal of Medicinal Chemistry, 2020).

Tests used:
hM1 mAChR = biological target: T1, hM1 mAChR (Homo sapiens, UniProt P11229); experiment: [3H]NMS inhibition radioligand binding, hM1 in CHO-K1 cell membranes; settings: [3H]NMS, CHO-K1 cell membranes; mean ± S.E.M.
T1 construct: expressed in transfected cells; host or cells: CHO-K1 (membrane preparation)
T1 sequence (P11229 1-460): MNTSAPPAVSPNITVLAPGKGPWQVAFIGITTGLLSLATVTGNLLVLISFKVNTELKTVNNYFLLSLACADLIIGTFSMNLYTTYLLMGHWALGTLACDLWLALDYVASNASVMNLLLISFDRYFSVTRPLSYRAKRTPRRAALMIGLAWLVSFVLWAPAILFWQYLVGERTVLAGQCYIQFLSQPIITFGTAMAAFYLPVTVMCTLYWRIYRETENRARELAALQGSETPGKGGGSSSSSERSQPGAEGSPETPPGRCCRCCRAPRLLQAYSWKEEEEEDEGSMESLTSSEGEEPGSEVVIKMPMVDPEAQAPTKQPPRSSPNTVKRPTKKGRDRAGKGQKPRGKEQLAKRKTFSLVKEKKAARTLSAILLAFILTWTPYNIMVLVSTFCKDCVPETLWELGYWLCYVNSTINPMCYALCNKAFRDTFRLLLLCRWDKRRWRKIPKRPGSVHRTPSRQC

hM2 mAChR = biological target: T2, hM2 mAChR (Homo sapiens, UniProt P08172); experiment: [3H]NMS inhibition radioligand binding, hM2 in CHO-K1 cell membranes; settings: [3H]NMS, CHO-K1 cell membranes; mean ± S.E.M.
T2 construct: expressed in transfected cells; host or cells: CHO-K1 (membrane preparation)
T2 sequence (P08172 1-466): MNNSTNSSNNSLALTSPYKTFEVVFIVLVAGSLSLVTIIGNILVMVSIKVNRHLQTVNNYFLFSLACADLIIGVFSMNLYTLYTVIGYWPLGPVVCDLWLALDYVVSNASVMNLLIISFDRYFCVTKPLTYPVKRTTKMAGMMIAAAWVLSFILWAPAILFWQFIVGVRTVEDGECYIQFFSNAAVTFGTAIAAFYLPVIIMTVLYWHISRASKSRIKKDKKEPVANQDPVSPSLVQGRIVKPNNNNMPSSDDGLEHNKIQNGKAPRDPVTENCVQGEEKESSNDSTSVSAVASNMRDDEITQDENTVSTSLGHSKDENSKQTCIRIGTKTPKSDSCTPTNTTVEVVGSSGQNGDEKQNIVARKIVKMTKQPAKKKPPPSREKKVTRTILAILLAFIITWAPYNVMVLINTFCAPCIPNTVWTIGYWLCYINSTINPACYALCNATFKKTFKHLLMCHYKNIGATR

hM3 mAChR = biological target: T3, hM3 mAChR (Homo sapiens, UniProt P20309); experiment: [3H]NMS inhibition radioligand binding, hM3 in CHO-K1 cell membranes
T3 construct: expressed in transfected cells; host or cells: CHO-K1 (membrane preparation)
T3 sequence (P20309 whole entry): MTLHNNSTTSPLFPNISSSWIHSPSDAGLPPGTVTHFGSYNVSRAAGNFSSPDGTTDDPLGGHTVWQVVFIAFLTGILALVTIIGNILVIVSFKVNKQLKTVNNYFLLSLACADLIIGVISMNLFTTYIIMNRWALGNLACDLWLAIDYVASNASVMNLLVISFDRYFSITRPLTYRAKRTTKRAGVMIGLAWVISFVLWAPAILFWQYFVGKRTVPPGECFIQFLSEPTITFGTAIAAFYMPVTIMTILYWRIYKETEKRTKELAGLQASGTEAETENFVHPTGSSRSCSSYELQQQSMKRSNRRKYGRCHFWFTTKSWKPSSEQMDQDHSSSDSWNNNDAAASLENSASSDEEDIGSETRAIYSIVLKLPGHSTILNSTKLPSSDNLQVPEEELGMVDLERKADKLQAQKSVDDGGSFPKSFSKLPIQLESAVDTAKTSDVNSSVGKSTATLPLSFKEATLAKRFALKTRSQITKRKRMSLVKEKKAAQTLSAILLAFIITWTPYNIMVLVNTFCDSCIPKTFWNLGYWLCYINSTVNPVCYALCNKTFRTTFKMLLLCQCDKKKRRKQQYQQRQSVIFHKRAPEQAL

hM5 mAChR = biological target: T4, hM5 mAChR (Homo sapiens, UniProt P08912); experiment: [3H]NMS inhibition radioligand binding, hM5 in CHO-K1 cell membranes; settings: [3H]NMS, CHO-K1 cell membranes; mean ± S.E.M.
T4 construct: expressed in transfected cells; host or cells: CHO-K1 (membrane preparation)
T4 sequence (P08912 1-532): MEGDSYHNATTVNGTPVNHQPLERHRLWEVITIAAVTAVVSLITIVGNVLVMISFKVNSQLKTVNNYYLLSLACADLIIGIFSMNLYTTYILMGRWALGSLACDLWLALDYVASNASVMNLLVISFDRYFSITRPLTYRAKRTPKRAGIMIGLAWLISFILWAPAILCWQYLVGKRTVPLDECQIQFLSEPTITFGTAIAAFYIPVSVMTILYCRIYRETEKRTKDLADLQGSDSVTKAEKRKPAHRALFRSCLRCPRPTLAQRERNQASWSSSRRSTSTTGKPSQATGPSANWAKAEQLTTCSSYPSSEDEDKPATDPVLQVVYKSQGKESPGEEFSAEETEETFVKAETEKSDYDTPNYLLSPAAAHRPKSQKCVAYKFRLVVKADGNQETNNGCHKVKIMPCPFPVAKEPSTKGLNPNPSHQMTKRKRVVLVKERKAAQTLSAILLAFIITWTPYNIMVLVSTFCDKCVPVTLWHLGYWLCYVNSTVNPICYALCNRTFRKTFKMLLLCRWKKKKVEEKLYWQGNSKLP

C[N+](C)(C)C[C@@H]1COC[C@](c2ccccc2)(C2CCCCC2)O1.[I-] (relative stereo) [3b, 1-((2R*,6R*)-6-Cyclohexyl-6-phenyl-1,4-dioxan-2-yl)-N,N,N-trimethylmethanaminium Iodide]
pKi hM1 (hM1 mAChR): 9.28 ± 0.19
pKi hM2 (hM2 mAChR): 7.91 ± 0.13
pKi hM3 (hM3 mAChR; [3H]NMS, CHO-K1 cell membranes, mean ± S.E.M.): 9.07 ± 0.03
M3/M2 selectivity ratio (hM3 mAChR; from binding affinities at hM3 and hM2): 14.5
pKi hM5 (hM5 mAChR): 8.41 ± 0.1
